US7176313B2, “Anti acid-fast bacterial agent containing pyridonecarboxylic acids as active ingredient” (Daiichi Pharmaceutical Co., Ltd., priority 2000, dated 2007)
Converted amounts (≈) assume the structure as drawn. Read-outs that look alike come from different tables or passages of the source.

How the values were obtained:
M. avium = experiment: Antibacterial activity (MIC) against M. avium; assay type: cell-based, Mycobacterium avium; details: Mycobacterium avium, read-out: MIC
Method: Antibacterial activity of the compounds of the invention was measured in accordance with the method described in the literature of Antimicrob. […] In the tables, “OFLX” is an abbreviation of “OFLOXAIN”.

M. intracellulare = experiment: Antibacterial activity (MIC) against M. intracellulare; assay type: cell-based, Mycobacterium intracellulare
Method: Antibacterial activity of the compounds of the invention was measured in accordance with the method described in the literature of Antimicrob. Agents and Chemother., 38, 2877 (1994), and the results are shown in Tables 3 to 8 in terms of MIC (μg/ml). In the tables, “OFLX” is an abbreviation of “OFLOXAIN”.

[1] = system: Mycobacterium tuberculosis (RFP sensitive); experiment: Antibacterial activity (MIC) against Mycobacterium tuberculosis (RFP sensitive); assay type: cell-based; details: Mycobacterium tuberculosis, read-out: MIC
[2] = Mouse acute toxicity test; assay type: in vivo, Male Slc:ddY mice; details: intravenous; for survival of mice after administration / acute toxicity: text summary of Table 9; for Mortality (dead/ test) / acute toxicity: mice
Method: Mouse Acute Toxicity Test
Male Slc:ddY mice at age of 5-weeks were used as test animals. For dissolving the compounds, 0.1 mol/l NaOH (in saline) was used. Mice were administered intravenously at a rate of 0.1 ml/30 seconds at a dosing volume of 10 ml/kg.

reticulocytes (RC) = experiment: Peripheral blood micronucleus test; assay type: in vivo, Male Slc:ddY mice; details: mice, intravenous; for MNRC (%) mean ±S.E. 24 hours: 24 hours after administration; for MNRC (%) mean ±S.E. 48 hours: 48 hours after administration; for micronucleus induction: (untreated control: 0.12±0.08)
Method: Peripheral Blood Micronucleus Test
Used animals and administration method are similar to those in the mouse acute toxicity test. Samples were prepared by collecting 5 μl each of blood sample from the tail vein at 24 and 48 hours after the administration, dropping the blood on a slide at which 0.1% acridine orange solution had been applied in advance, sealing the slide with a cover glass immediately, and allowing it to stand in a refrigerator for 24 hours.

## COc1c(N2C[C@@H](C)N[C@@H](C)C2)c(F)cc2c(=O)c(C(=O)O)cn([C@@H]3C[C@@H]3F)c12 [Compd. 16, 7-(3,5-cis-Dimethylpiperazin-1-yl)-6-fluoro-1-[2-(S)-fluoro-1-(R)-cyclopropyl]-1,4-dihydro-8-methoxy-4-oxoquinoline-3-carboxylic acid]
M. avium; M. avium N-357, Table 4 (series 2)
  MIC: 0.5 µg/mL (≈ 1.23 µM)
M. avium; M. avium N-444, Table 4 (series 2)
  MIC: 1 µg/mL (≈ 2.45 µM)
M. avium; M. avium N-458, Table 4 (series 2)
  MIC: 0.5 µg/mL (≈ 1.23 µM)
M. avium; M. avium N-472, Table 4 (series 2)
  MIC: 4 µg/mL (≈ 9.82 µM)
M. intracellulare; Mycobacterium intracellulare, M. intracellulare N-294, Table 4 (series 2), read-out: MIC
  MIC: 1 µg/mL (≈ 2.45 µM)
M. intracellulare; Mycobacterium intracellulare, M. intracellulare N-313, Table 4 (series 2), read-out: MIC
  MIC: 0.12 µg/mL (≈ 0.295 µM)
M. intracellulare; Mycobacterium intracellulare, M. intracellulare N-338, Table 4 (series 2), read-out: MIC
  MIC: 0.5 µg/mL (≈ 1.23 µM)
M. intracellulare; Mycobacterium intracellulare, M. intracellulare N-345, Table 4 (series 2), read-out: MIC
  MIC: 0.5 µg/mL (≈ 1.23 µM)
[1]; H37RV, M. tuberculosis H37Rv, Table 6 (series 2)
  MIC: 0.12 µg/mL (≈ 0.295 µM)
[1]; M. tuberculosis Kurono, Table 6 (series 2)
  MIC: 0.12 µg/mL (≈ 0.295 µM)
[1]; M. tuberculosis No. 40, Table 6 (series 2)
  MIC: 0.12 µg/mL (≈ 0.295 µM)
[1]; M. tuberculosis No. 41, Table 6 (series 2)
  MIC: 0.03 µg/mL (≈ 0.0736 µM)
[1]; M. tuberculosis No. 43, Table 6 (series 2)
  MIC: 1 µg/mL (≈ 2.45 µM)
[1]; M. tuberculosis No. 68, Table 6 (series 2)
  MIC: 0.12 µg/mL (≈ 0.295 µM)
[2]
  survival of mice after administration: all mice were survived
  acute toxicity: relatively weak
[2]; 150 mg/kg
  Mortality (dead/ test): 0/5
Reticulocytes (RC); 150 mg/kg
  MNRC (%) mean ±S.E. 24 hours: 0.05 ± 0.03%
  MNRC (%) mean ±S.E. 48 hours: 0.12 ± 0.02%
Reticulocytes (RC)
  micronucleus induction: weak

## COc1c(N2CCN3CCC2C3)c(F)cc2c(=O)c(C(=O)O)cn([C@@H]3C[C@@H]3F)c12 (stereo partly drawn) [Compd. 28, 7-{1,4-Diazabicyclo[3.2.1]octan-4-yl}-6-fluoro-1-[(1R,2S)-2-fluorocyclopropyl]-1,4-dihydro-8-methoxy-4-oxoquinoline-3-carboxylic acid]
other
  melting point: 195 to 198 °C (dec.)

## COCC1CN(c2c(F)cc3c(=O)c(C(=O)O)cn([C@@H]4C[C@@H]4F)c3c2OC)CCN1 (stereo partly drawn) [Compd. 21, 6-Fluoro-1-[(1R,2S)-2-fluorocyclopropyl]-1,4-dihydro-8-methoxy-7-(3-methoxymethylpiperazin-1-yl)-4-oxoquinoline-3-carboxylic acid]
other
  melting point: 92 to 95 °C

## COc1c(N2CCN(C)CC2)c(F)cc2c(=O)c(C(=O)O)cn([C@@H]3C[C@@H]3F)c12 [Compd. 15, 6-Fluoro-1-[2-(S)-fluoro-1-(R)-cyclopropyl]-1,4-dihydro-8-methoxy-7-(4-methylpiperazin-1-yl)-4-oxoquinoline-3-carboxylic acid]
M. avium; M. avium N-357, Table 3
  MIC: 0.39 µg/mL (≈ 0.991 µM)
M. avium; M. avium N-444, Table 3
  MIC: 0.78 µg/mL (≈ 1.98 µM)
M. avium; M. avium N-458, Table 3
  MIC: 0.2 µg/mL (≈ 0.508 µM)
M. avium; M. avium N-472, Table 3
  MIC: 1.56 µg/mL (≈ 3.97 µM)
M. intracellulare; M. intracellulare N-338, Table 3
  MIC: 1.56 µg/mL (≈ 3.97 µM)
M. intracellulare; Mycobacterium intracellulare, M. intracellulare N-313, Table 3, read-out: MIC
  MIC: 0.39 µg/mL (≈ 0.991 µM)
M. intracellulare; Mycobacterium intracellulare, M. intracellulare N-345, Table 3, read-out: MIC
  MIC: 3.13 µg/mL (≈ 7.96 µM)
M. intracellulare; Mycobacterium intracellulare, M. intracellulare N-294, Table 3, read-out: MIC
  MIC: 1.56 µg/mL (≈ 3.97 µM)
[1]; H37RV, M. tuberculosis H37Rv, Table 5
  MIC: 0.1 µg/mL (≈ 0.254 µM)
[1]; M. tuberculosis Kurono, Table 5
  MIC: 0.05 µg/mL (≈ 0.127 µM)
[1]; M. tuberculosis No. 40, Table 5
  MIC: 0.05 µg/mL (≈ 0.127 µM)
[1]; M. tuberculosis No. 41, Table 5
  MIC: 0.025 µg/mL (≈ 0.0636 µM)
[1]; M. tuberculosis No. 43, Table 5
  MIC: 0.39 µg/mL (≈ 0.991 µM)
[1]; M. tuberculosis No. 68, Table 5
  MIC: 0.1 µg/mL (≈ 0.254 µM)
[2]
  survival of mice after administration: all mice were survived
  acute toxicity: relatively weak
[2]; 50 mg/kg
  Mortality (dead/ test): 0/5
Reticulocytes (RC); 50 mg/kg
  MNRC (%) mean ±S.E. 24 hours: 0.20 ± 0.04%
  MNRC (%) mean ±S.E. 48 hours: 0.14 ± 0.04%
Reticulocytes (RC)
  micronucleus induction: weak

## COc1c(N2CCNC3(CC3)C2)c(F)cc2c(=O)c(C(=O)O)cn([C@@H]3C[C@@H]3F)c12 [Compd. 22, 7-{4,7-Diazaspiro[2.5]octan-7-yl}-6-fluoro-1-[(1R,2S)-2-fluorocyclopropyl]-1,4-dihydro-8-methoxy-4-oxoquinoline-3-carboxylic acid]
other
  melting point: 164 to 167 °C (dec.)

## COc1c(C2CNC3(CCC3)CN2)c(F)cc2c(=O)c(C(=O)O)cn([C@@H]3C[C@@H]3F)c12 (stereo partly drawn) [Compd. 23, 7-{5,8-Diazaspiro[3.5]nonan-7-yl}-6-fluoro-1-[(1R,2S)-2-fluorocyclopropyl]-1,4-dihydro-8-methoxy-4-oxoquinoline-3-carboxylic acid]
other
  melting point: 138 to 140 °C (dec.)

## COc1c(N2CCNC(C3CC3)C2)c(F)cc2c(=O)c(C(=O)O)cn([C@@H]3C[C@@H]3F)c12 (stereo partly drawn) [Compd. 24, 7-(3-Cyclopropylpiperazin-1-yl)-6-fluoro-1-[(1R,2S)-2-fluorocyclopropyl]-1,4-dihydro-8-methoxy-4-oxoquinoline-3-carboxylic acid]
other
  melting point: 136 to 139 °C

## COc1c(N2CCNC(CF)C2)c(F)cc2c(=O)c(C(=O)O)cn([C@@H]3C[C@@H]3F)c12 (stereo partly drawn) [Compd. 19, 6-Fluoro-1-[(1R,2S)-2-fluorocyclopropyl]-7-(3-fluoromethylpiperazin-1-yl)-1,4-dihydro-8-methoxy-4-oxoquinoline-3-carboxylic acid]
other
  melting point: 153 to 156 °C
